Experimental data published in patent US12708630B2, “Combined therapy of 4′-thio-5-aza-2′-deoxycytidine and Venetoclax” (PINOTBIO, INC., priority 2021, dated 2026).
pIC50: −log10 of the molar value.

Experiments:
[1] = tested on: CEBP/epsilon, CDKN1B; assay: CEBP/epsilon and CDKN1B expression in AML cell lines; format: cell-based
From the text: CEBP/epsilon and CDKNIB expression was identified and comparatively analyzed in various AML cell lines to determine the mode of target engagement induced by DNMT1 inhibition upon treatment with Aza-T-dCyd (NTX-301) (FIG. 16).

[2] = tested on: A7; assay: drug activity profiling cytotoxicity; format: cell-based; settings: A7 cell line, Skin (Melanoma); read-out: Aza-T-dCyd IC50
Method: (§1) To obtain a biomarker for Aza-T-dCyd, drug activity profiling analysis was performed to evaluate the cytotoxicity of 200 cell lines.
(§2) The drug responsiveness analysis of Aza-T-dCyd through drug activity profiling and genomic analysis of 200 cell lines confirmed the potent efficacy of Aza-T-dCyd in various solid tumors (Table 2).

[3] = tested on: C-4 II; assay: drug activity profiling cytotoxicity; format: cell-based; settings: Homo sapiens; C-4 II cell line, Female GU (Cervix); read-out: Aza-T-dCyd IC50
Method: as §1, §2

[4] = tested on: CCRFCEM; assay: drug activity profiling cytotoxicity; format: cell-based; settings: Homo sapiens, CCRF-CEM; CCRFCEM cell line, ALL; read-out: Aza-T-dCyd IC50
Method: as §1, §2

[5] = tested on: CML-T1; assay: drug activity profiling cytotoxicity; format: cell-based; settings: CML-T1 cell line, read-out: Aza-T-dCyd IC50
Method: as §1, §2

[6] = tested on: KATO III; assay: drug activity profiling cytotoxicity; format: cell-based; settings: Homo sapiens; KATO III cell line, Stomach; read-out: Aza-T-dCyd IC50
Method: as §1, §2

[7] = tested on: MHH-PREB-1; assay: drug activity profiling cytotoxicity; format: cell-based; settings: Homo sapiens; MHH-PREB-1 cell line, B-cell lymphoma; read-out: Aza-T-dCyd IC50
Method: as §1, §2

[8] = tested on: SCaBER; assay: drug activity profiling cytotoxicity; format: cell-based; settings: Homo sapiens; SCaBER cell line, Bladder; read-out: Aza-T-dCyd IC50
Method: as §1, §2

[9] = tested on: SKOV3; assay: drug activity profiling cytotoxicity; format: cell-based; settings: Homo sapiens, SK-OV-3; SKOV3 cell line, Female GU (Ovary); read-out: Aza-T-dCyd IC50
Method: as §1, §2

[10] = tested on: SW837; assay: drug activity profiling cytotoxicity; format: cell-based; settings: Homo sapiens; SW837 cell line, Colon; read-out: Aza-T-dCyd IC50
Method: as §1, §2

[11] = Pharmacokinetic evaluation in Mice (Table 4); settings: mouse, in vivo; for half-life: read-out: T½ (converted)
Method: (§3) Aza-T-dCyd was administered orally and intravenously at various concentrations to Mice, Rats and Dogs to determine the PK profile.

[12] = Pharmacokinetic evaluation in Dog; format: in vivo; settings: for AUC(0-inf) / AUC(0-t) / Cmax / half-life / Tmax: in vivo, Dog; for half-life: read-out: T½ (converted)
Method: as §3

[13] = tested on: HL-60 AML xenograft; assay: HL-60 AML xenograft model; format: in vivo; settings: 2.0 mg/kg
[14] = GLP rat Toxicology study; format: in vivo, rats
Method: GLP-Tox studies have been conducted in rats and dogs, with 2 cycles of QD×5d at PO.
In the GLP rat Toxicology study, rats received 2.5, 5, and 10 mg/kg of Aza-T-dCyd (15, 30, and 60 mg/m2) per day.

[15] = tested on: MDS/AML model; assay: AUC exposure versus efficacy in the MDS/AML model; format: in vivo
[16] = tested on: cytidine deaminase; assay: Degradation by cytidine deaminase
From the text: Decitabine/Azacytidine is susceptible to metabolism by cytidine deaminases in the body, resulting in an unstable PK profile that limits its efficacy.

[17] = target: DNMT1 (Homo sapiens, UniProt P26358); assay: DNMT1 protein Western blotting in cancer cell lines; format: cell-based; set-up: endogenous in cells; host or cells: MV4-11, KG-1a, CCRF-CEM, NCI-H23, HCT-116, IGROV-1 (also HL-60, THP-1); settings: for DNMT1 protein (Western blotting): AML cell lines MV4-11 and KG-1a
[18] = MV4-11, HL-60 and KG-1a cells, 72 hours
[19] = THP-1 cells, different concentrations

Sequence of DNMT1 (P26358 whole entry): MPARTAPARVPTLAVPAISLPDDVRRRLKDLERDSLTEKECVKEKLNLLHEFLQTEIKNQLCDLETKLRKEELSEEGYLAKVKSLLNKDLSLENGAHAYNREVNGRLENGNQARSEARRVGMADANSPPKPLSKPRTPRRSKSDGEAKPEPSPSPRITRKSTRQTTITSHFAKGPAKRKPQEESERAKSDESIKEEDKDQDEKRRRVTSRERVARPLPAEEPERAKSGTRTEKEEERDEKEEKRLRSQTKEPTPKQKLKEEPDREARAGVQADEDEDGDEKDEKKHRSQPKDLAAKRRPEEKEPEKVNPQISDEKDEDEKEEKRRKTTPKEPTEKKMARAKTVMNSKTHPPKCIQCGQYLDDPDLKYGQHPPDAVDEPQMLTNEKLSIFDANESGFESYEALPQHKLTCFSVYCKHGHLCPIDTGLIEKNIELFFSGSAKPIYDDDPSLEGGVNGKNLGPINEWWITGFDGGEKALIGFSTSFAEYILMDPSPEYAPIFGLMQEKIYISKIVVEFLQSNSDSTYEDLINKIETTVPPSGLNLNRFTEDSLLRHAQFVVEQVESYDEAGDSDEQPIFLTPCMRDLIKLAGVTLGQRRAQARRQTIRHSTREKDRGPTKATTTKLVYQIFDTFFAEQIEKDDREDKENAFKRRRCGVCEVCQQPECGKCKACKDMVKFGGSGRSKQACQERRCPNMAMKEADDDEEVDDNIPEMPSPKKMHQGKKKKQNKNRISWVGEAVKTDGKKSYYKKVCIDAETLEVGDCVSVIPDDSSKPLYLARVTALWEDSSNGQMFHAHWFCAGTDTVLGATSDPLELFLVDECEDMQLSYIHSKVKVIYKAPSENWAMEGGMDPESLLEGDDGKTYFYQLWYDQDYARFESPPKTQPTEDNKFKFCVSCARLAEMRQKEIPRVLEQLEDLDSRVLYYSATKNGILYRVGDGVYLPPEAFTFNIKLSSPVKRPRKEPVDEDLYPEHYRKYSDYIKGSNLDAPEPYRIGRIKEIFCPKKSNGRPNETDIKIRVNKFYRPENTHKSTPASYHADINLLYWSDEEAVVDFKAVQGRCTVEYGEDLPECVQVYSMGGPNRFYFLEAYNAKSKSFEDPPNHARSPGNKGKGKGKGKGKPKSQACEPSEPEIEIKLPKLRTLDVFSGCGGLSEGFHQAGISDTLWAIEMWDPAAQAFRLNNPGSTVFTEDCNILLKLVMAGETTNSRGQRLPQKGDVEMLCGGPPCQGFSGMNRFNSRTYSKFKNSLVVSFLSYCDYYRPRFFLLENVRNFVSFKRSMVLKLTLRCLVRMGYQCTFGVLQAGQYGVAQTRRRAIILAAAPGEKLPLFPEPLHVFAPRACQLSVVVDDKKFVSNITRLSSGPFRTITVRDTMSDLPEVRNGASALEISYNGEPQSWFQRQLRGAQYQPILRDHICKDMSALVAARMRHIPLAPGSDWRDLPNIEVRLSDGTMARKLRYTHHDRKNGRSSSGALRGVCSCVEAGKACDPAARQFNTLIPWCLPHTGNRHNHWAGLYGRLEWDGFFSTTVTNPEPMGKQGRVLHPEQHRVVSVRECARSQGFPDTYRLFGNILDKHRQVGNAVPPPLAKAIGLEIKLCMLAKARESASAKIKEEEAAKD

**Q.** Which “CEBP/epsilon and CDKN1B intracellular protein expression” value [1, 18] does the source give for `Nc1ncn([C@H]2CC(O)[C@@H](CO)S2)c(=O)n1` (stereo partly shown) [Aza-T-dCyd, 4′-thio-5-aza-2′-deoxycytidine] here?
**A.** expression of CEBP/epsilon and CDKN1B was increased

**Q.** What about the “CEBP/epsilon and CDKN1B expression” value [1, 19] of the same compound?
**A.** increased CEBP/epsilon expression and CDKN1B expression

**Q.** What about the pIC50 [2] of the same compound?
**A.** 5.92

**Q.** What about the pIC50 [3] of the same compound?
**A.** 6.11

**Q.** What about the pIC50 [4] of the same compound?
**A.** 6.92

**Q.** And the pIC50 [5]?
**A.** 6.96

**Q.** What about the pIC50 [6] of the same compound?
**A.** 6.09

**Q.** What about the pIC50 [7] of the same compound?
**A.** 7.41

**Q.** What about the pIC50 [8] of the same compound?
**A.** 6.73

**Q.** What about the pIC50 [9] of the same compound?
**A.** 5.53

**Q.** And the pIC50 [10]?
**A.** 6.45

**Q.** And the AUC(0-inf) ([11]; Table 4, IV 1 mg/kg)?
**A.** 406 ng·h/mL

**Q.** And the AUC(0-t) ([11]; Table 4, IV 1 mg/kg)?
**A.** 370 ng·h/mL

**Q.** What about the Cmax ([11]; Table 4, IV 1 mg/kg) of the same compound?
**A.** 527 ng/mL

**Q.** And the half-life ([11]; Table 4, IV 1 mg/kg)?
**A.** 36.7 min

**Q.** What about the AUC(0-inf) ([11]; Table 4, PO 0.5 mg/kg) of the same compound?
**A.** 131 ng·h/mL

**Q.** And the AUC(0-t) ([11]; Table 4, PO 0.5 mg/kg)?
**A.** 118 ng·h/mL

**Q.** And the Cmax ([11]; Table 4, PO 0.5 mg/kg)?
**A.** 211 ng/mL

**Q.** What about the Tmax ([11]; Table 4, PO 0.5 mg/kg) of the same compound?
**A.** 30 min

**Q.** What about the half-life ([11]; Table 4, PO 0.5 mg/kg) of the same compound?
**A.** 18.2 min

**Q.** And the AUC(0-inf) ([11]; Table 4, PO 1 mg/kg)?
**A.** 235 ng·h/mL

**Q.** And the AUC(0-t) ([11]; Table 4, PO 1 mg/kg)?
**A.** 136 ng·h/mL

**Q.** And the Cmax ([11]; Table 4, PO 1 mg/kg)?
**A.** 138 ng/mL

**Q.** And the Tmax ([11]; Table 4, PO 1 mg/kg)?
**A.** 15 min

**Q.** And the half-life ([11]; Table 4, PO 1 mg/kg)?
**A.** 103 min

**Q.** And the AUC(0-inf) ([11]; Table 4, PO 3 mg/kg)?
**A.** 443 ng·h/mL

**Q.** And the AUC(0-t) ([11]; Table 4, PO 3 mg/kg)?
**A.** 303 ng·h/mL

**Q.** What about the Cmax ([11]; Table 4, PO 3 mg/kg) of the same compound?
**A.** 256 ng/mL

**Q.** What about the Tmax ([11]; Table 4, PO 3 mg/kg) of the same compound?
**A.** 15 min

**Q.** And the half-life ([11]; Table 4, PO 3 mg/kg)?
**A.** 66.6 min

**Q.** And the AUC(0-inf) ([11]; Table 4, PO 10 mg/kg)?
**A.** 1460 ng·h/mL

**Q.** What about the AUC(0-t) ([11]; Table 4, PO 10 mg/kg) of the same compound?
**A.** 1340 ng·h/mL

**Q.** What about the Cmax ([11]; Table 4, PO 10 mg/kg) of the same compound?
**A.** 863 ng/mL

**Q.** And the Tmax ([11]; Table 4, PO 10 mg/kg)?
**A.** 20 min

**Q.** What about the half-life ([11]; Table 4, PO 10 mg/kg) of the same compound?
**A.** 69 min

**Q.** And the oral bioavailability ([12]; dogs)?
**A.** orally bioavailable

**Q.** And the AUC(0-inf) ([12]; IV 0.33 mg/kg)?
**A.** 1130 ng·h/mL

**Q.** What about the AUC(0-t) ([12]; IV 0.33 mg/kg) of the same compound?
**A.** 1050 ng·h/mL

**Q.** And the Cmax ([12]; IV 0.33 mg/kg)?
**A.** 552 ng/mL

**Q.** And the half-life ([12]; IV 0.33 mg/kg)?
**A.** 135 min

**Q.** What about the AUC(0-inf) ([12]; PO 0.15 mg/kg) of the same compound?
**A.** 439 ng·h/mL

**Q.** And the AUC(0-t) ([12]; PO 0.15 mg/kg)?
**A.** 409 ng·h/mL

**Q.** What about the Cmax ([12]; PO 0.15 mg/kg) of the same compound?
**A.** 104 ng/mL

**Q.** And the Tmax ([12]; PO 0.15 mg/kg)?
**A.** 60 min

**Q.** And the half-life ([12]; PO 0.15 mg/kg)?
**A.** 112 min

**Q.** What about the AUC(0-inf) ([12]; PO 0.33 mg/kg) of the same compound?
**A.** 880 ng·h/mL

**Q.** What about the AUC(0-t) ([12]; PO 0.33 mg/kg) of the same compound?
**A.** 790 ng·h/mL

**Q.** What about the Cmax ([12]; PO 0.33 mg/kg) of the same compound?
**A.** 210 ng/mL

**Q.** What about the Tmax ([12]; PO 0.33 mg/kg) of the same compound?
**A.** 40.2 min

**Q.** And the half-life ([12]; PO 0.33 mg/kg)?
**A.** 140 min

**Q.** What about the AUC(0-inf) ([12]; PO 0.67 mg/kg) of the same compound?
**A.** 1760 ng·h/mL

**Q.** And the AUC(0-t) ([12]; PO 0.67 mg/kg)?
**A.** 1570 ng·h/mL

**Q.** What about the Cmax ([12]; PO 0.67 mg/kg) of the same compound?
**A.** 463 ng/mL

**Q.** What about the Tmax ([12]; PO 0.67 mg/kg) of the same compound?
**A.** 49.8 min

**Q.** What about the half-life ([12]; PO 0.67 mg/kg) of the same compound?
**A.** 136 min

**Q.** What about the AUC(0-inf) ([12]; PO 1.5 mg/kg) of the same compound?
**A.** 3370 ng·h/mL

**Q.** And the AUC(0-t) ([12]; PO 1.5 mg/kg)?
**A.** 3200 ng·h/mL

**Q.** And the Cmax ([12]; PO 1.5 mg/kg)?
**A.** 882 ng/mL

**Q.** What about the Tmax ([12]; PO 1.5 mg/kg) of the same compound?
**A.** 40.2 min

**Q.** What about the half-life ([12]; PO 1.5 mg/kg) of the same compound?
**A.** 101 min

**Q.** What about the AUC(0-inf) ([12]; PO 3.0 mg/kg) of the same compound?
**A.** 5620 ng·h/mL

**Q.** And the AUC(0-t) ([12]; PO 3.0 mg/kg)?
**A.** 5380 ng·h/mL

**Q.** And the Cmax ([12]; PO 3.0 mg/kg)?
**A.** 1670 ng/mL

**Q.** And the Tmax ([12]; PO 3.0 mg/kg)?
**A.** 25 min

**Q.** What about the half-life ([12]; PO 3.0 mg/kg) of the same compound?
**A.** 99 min

**Q.** And the tumor suppression [13]?
**A.** strong tumor suppression

**Q.** And the “Testicular toxicity, including decreased sperm count” value ([14]; rat)?
**A.** reversible upon discontinuation

**Q.** What about the Toxicity target organs ([14]; rat, 2.5, 5 and 10 mg/kg per day) of the same compound?
**A.** bone marrow, thymus, heart, and testes

**Q.** What about the “AUC value at which efficacy is shown” value ([15]; MDS/AML model) of the same compound?
**A.** 60 ng·h/mL

**Q.** What about the “AUC value of best therapeutic efficacy” value ([15]; MDS/AML model) of the same compound?
**A.** 200 to 250 ng·h/mL

**Q.** And the “AUC of best efficacy relative to the HNSTD” value ([15]; most sensitive species)?
**A.** about 25%

**Q.** What about the “AUC of best efficacy relative to the NOAEL value” ([15]; most sensitive species) of the same compound?
**A.** about 50%

**Q.** What about the “rate of degradation by cytidine deaminase” value [16] of the same compound?
**A.** slower rate of degradation by cytidine deaminase

**Q.** What about the “DNMT1 protein (Western blotting)” value ([17]; 20 nM) of the same compound?
**A.** completely reduced DNMT1

**Q.** What about the “DNMT1 protein (Western blotting)” value [17] of the same compound?
**A.** reduced DNMT1 protein in a concentration-dependent manner

**Q.** What about the DNMT1 inhibition ([17]; CCRF-CEM (ALL cell line) cells, FIG. 12) of the same compound?
**A.** inhibits DNMT1

**Q.** What about the DNMT1 inhibition ([17]; CCRF-CEM (ALL) and solid cancer cell line) of the same compound?
**A.** can inhibit DNMT1 in a concentration-dependent manner

**Q.** What about the DNMT1 inhibition ([17]; KG-1a (AML cell line) cells, FIG. 11) of the same compound?
**A.** inhibits DNMT1

**Q.** What about the DNMT1 inhibition ([17]; MV4-11 (AML cell line) cells, different concentrations, FIG. 10) of the same compound?
**A.** inhibits DNMT1

**Q.** What about the “DNMT1 intracellular protein expression” value [17, 18] of the same compound?
**A.** expression of DNMT1 was inhibited

**Q.** What about the DNMT1 inhibition ([17]; NCI-H23, HCT-116 and IGROV-1 cell lines, FIG. 13) of the same compound?
**A.** inhibits DNMT1

**Q.** What about the DNMT1 inhibition [17, 19] of the same compound?
**A.** induced DNMT1 inhibition in a dose-dependent manner
